{"source": "patent US5766624A", "about": "“Liposomal defensins” (The Liposme Company, Inc., priority 1995, dated 1998)", "key": {"[1]": {"system": "Aspergillus fumigatus", "experiment": "Treatment of Aspergillus fumigatus infections in mice", "assay_type": "in vivo, Balb/c mice", "settings": "2 mg/kg, given six hours after 2×10^7 A. fumigatus spores; 15-day period", "source_text": "FIG. 14. Therapeutic Efficacy of Free and Liposomal Indolicidin Against Aspergillus Infections in Mice. […] The animals' survival was monitored over a period of fifteen days. Percent survival (vertical axis) is plotted against time in days (horizontal axis).\nMale Balb/c mice were each injected with 2×10^7 Aspergillus fumigatus spores by injection in the tail vein. After six hours, the mice were randomly divided into five groups of 10 mice each. […] The animals' survival was monitored over a 15-day period."}, "[2]": {"experiment": "Right angle light scattering of aqueous indolicidin", "assay_type": "physicochemical", "settings": "10 mM HEPES, 150 mM NaCl, pH 7.5; light scattering 500 nm, 90 degrees", "protocol": "FIG. 1. Right Angle Light Scattering of Aqueous Indolicidin. […] Samples were placed in fluorescence cuvettes and the scattering of light at 500 nm wavelengths (excitation wavelength) was measured in the fluorimeter at an angle of 90 degrees.\nSamples were placed in fluorescence cuvettes and light scattering at 500 nm ([…] in the fluorimeter, at a 90 degree angle."}, "[3]": {"experiment": "Leakage of CAT1 probe from DSPC/Chol liposomes (ESR)", "settings": "for % Probe in Supernatant: CAT1, 23 deg. C", "protocol": "A solution of DSPC (60 mg) and cholesterol (20 mg) was dried by rotary evaporation; the dried lipids were then rehydrated with 2 ml of buffer (10 mM HEPES, 150 mM NaCl), containing 0.5 mM of the probe CAT1 (4-trimethylammmonium-2,2,6,6-tetramethylpiperidine-1-oxyl-iodide) so as to form a suspension of multilamellar liposomes containing the probe. A suspension of these vesicles was then heated for 10 min. at 65 deg. C. The sample was washed four times with HEPES buffer and resuspended in buffer to a final volume of 2 ml. […] Various amounts of this solution (see Table 1, below) were combined with an aliquot (100 μl) of the liposome preparation, with buffer then being added to bring the final volume up to 0.2 ml. Samples were microfuged, and the supernatants transferred to ESR tubes. Spectra were taken at room temperature (23 deg. C.) to determine the concentration of the probe in the supernatant samples (see Perkins et al., Biochim. Biophys. Acta. 943:103 (1988)).\nThe data (see Table 1, below) indicates the percent of the probe found in the supernatant, and thereby, the percent leakage from the DSPC/Chol liposomes."}, "[4]": {"experiment": "In vivo acute toxicity", "set-up": "species or system Balb/c mice", "settings": "for Number of Animals Dead: tail vein", "protocol": "Mice were also injected with saline and with empty liposomes."}, "[5]": {"experiment": "Leakage of CAT1 probe from DSPC/Chol/DDAB liposomes (ESR)", "protocol": "A solution of DSPC (51.6 mg), cholesterol (20.2 mg) and dimethyldioctadecyl ammonium bromide (DDAB; 8.23 mg) was dried in a round-bottom flask. The lipids were rehydrated with buffer (10 mM HEPES, 150 mM NaCl) containing 0.5 mM of the probe CAT1 so as to form a suspension of multilamellar liposomes. The suspension was heated at 65 deg. C. for 10 min and then washed twice in 10 ml of the HEPES buffer, with the final pellet comprising DSPC/Chol/DDAB multilamellar liposomes containing CAT1, being resuspended in HEPES buffer to a final volume of 2 ml. A standard phosphate assay (see Chen et al., Anal. Chem. 28:1956 (1956)) was performed to determine the amount of lipid remaining (34.12 mg).\nVarious amounts of this solution (see Table 2, below) were combined with an aliquot (100 μl) of the liposome suspension, the final volume of the samples being brought up to 0.2 ml with HEPES buffer. These samples were centrifuged, and aliquots of the supernatants were taken for ESR spectra determination (23 deg. C.) to measure probe leakage."}, "[6]": {"system": "protein kinase C", "settings": "Charp et al., Biochem. Pharmacol. 37(5):951 (1988); cited from earlier work"}}, "note": "Where no end group is shown, it is not given here.", "data": [{"molecule": "CC[C@H](C)[C@H](N)C(=O)N[C@@H](CC(C)C)C(=O)N1CCC[C@H]1C(=O)N[C@@H](Cc1c[nH]c2ccccc12)C(=O)N[C@@H](CCCCN)C(=O)N[C@@H](Cc1c[nH]c2ccccc12)C(=O)N1CCC[C@H]1C(=O)N[C@@H](Cc1c[nH]c2ccccc12)C(=O)N[C@@H](Cc1c[nH]c2ccccc12)C(=O)N1CCC[C@H]1C(=O)N[C@@H](Cc1c[nH]c2ccccc12)C(=O)N[C@@H](CCCNC(=N)N)C(=O)N[C@@H](CCCNC(=N)N)C(N)=O", "note": "[indolicidin]", "values": [{"measurement": "survival times of infected mice", "setting": "[1]", "value": "slight increase in survival times"}, {"measurement": "concentration at which indolicidin self-associates in solution", "setting": "[2]", "value": "≥ 30000", "unit": "ng/mL"}, {"measurement": "% Leakage of Probe", "setting": "[3]; 0.42 mole % indolicidin", "value": 1.75, "unit": "%"}, {"measurement": "% Probe in Supernatant", "setting": "[3]; 0.42 mole % indolicidin (3.20 μl stock)", "value": 6.14, "unit": "%"}, {"measurement": "% Leakage of Probe", "setting": "[3]; 0.82 mole % indolicidin", "value": 1.75, "unit": "%"}, {"measurement": "% Probe in Supernatant", "setting": "[3]; 0.82 mole % indolicidin (6.30 μl stock)", "value": 6.14, "unit": "%"}, {"measurement": "% Leakage of Probe", "setting": "[3]; 1.61 mole % indolicidin", "value": 0.87, "unit": "%"}, {"measurement": "% Probe in Supernatant", "setting": "[3]; 1.61 mole % indolicidin (12.50 μl stock)", "value": 5.26, "unit": "%"}, {"measurement": "% Leakage of Probe", "setting": "[3]; 3.16 mole % indolicidin", "value": 1.75, "unit": "%"}, {"measurement": "% Probe in Supernatant", "setting": "[3]; 3.16 mole % indolicidin (25.00 μl stock)", "value": 6.14, "unit": "%"}, {"measurement": "% Leakage of Probe", "setting": "[3]; 6.16 mole % indolicidin", "value": 2.63, "unit": "%"}, {"measurement": "% Probe in Supernatant", "setting": "[3]; 6.16 mole % indolicidin (50.00 μl stock)", "value": 7.02, "unit": "%"}, {"measurement": "% Leakage of Probe", "setting": "[3]; 8.93 mole % indolicidin", "value": 1.75, "unit": "%"}, {"measurement": "% Probe in Supernatant", "setting": "[3]; 8.93 mole % indolicidin (75.00 μl stock)", "value": 6.14, "unit": "%"}, {"measurement": "effect of increasing indolicidin concentration on probe leakage", "setting": "[3]; DSPC/Chol liposomes, 0.42-8.93 mole % indolicidin", "value": "did not significantly increase probe leakage"}, {"measurement": "Number of Animals Dead", "setting": "[4]; free indolicidin dose 0.4 mg/kg", "value": "0/5"}, {"measurement": "Number of Animals Dead", "setting": "[4]; free indolicidin dose 1.2 mg/kg", "value": "1/5"}, {"measurement": "Number of Animals Dead", "setting": "[4]; free indolicidin dose 4.0 mg/kg", "value": "3/5"}, {"measurement": "Number of Animals Dead", "setting": "[4]; free indolicidin dose 12.0 mg/kg", "value": "0/5"}, {"measurement": "LD50", "setting": "[4]; male Balb/c mice, tail vein injection", "value": 3, "unit": "mg/kg"}, {"measurement": "% Probe in Supernatant", "setting": "[5]; 0.48 mole % indolicidin (3.20 μl stock), CAT1, 23 deg. C", "value": 8.00, "unit": "%"}, {"measurement": "% Probe in Supernatant", "setting": "[5]; 0.93 mole % indolicidin (6.30 μl stock)", "value": 8.00, "unit": "%"}, {"measurement": "% Probe in Supernatant", "setting": "[5]; 1.84 mole % indolicidin (12.50 μl stock)", "value": 9.78, "unit": "%"}, {"measurement": "% Probe in Supernatant", "setting": "[5]; 3.61 mole % indolicidin (25.00 μl stock)", "value": 10.67, "unit": "%"}, {"measurement": "% Probe in Supernatant", "setting": "[5]; 6.99 mole % indolicidin (50.00 μl stock)", "value": 9.78, "unit": "%"}, {"measurement": "% Probe in Supernatant", "setting": "[5]; 10.09 mole % indolicidin (75.00 μl stock), corrected for any liposomes in the supernatant", "value": 0, "unit": "%"}, {"measurement": "% Probe in Supernatant", "setting": "[5]; 13.04 mole % indolicidin (100.00 μl stock), corrected for any liposomes in the supernatant", "value": 0, "unit": "%"}]}, {"molecule": "HNP-1: human neutrophil protein 1, a prototypical mammalian defensin", "values": [{"measurement": "protein kinase C activity", "setting": "[6]", "value": "inhibited"}]}, {"molecule": "HNP-2: human neutrophil protein 2, a prototypical mammalian defensin (CYCRIPACIAGERRYGTCIYQGRLWAFCC; ends and bridges not checked; cysteine pairing not given here; UniProt P59665 66-94, looked up)", "values": [{"measurement": "protein kinase C activity", "setting": "[6]", "value": "inhibited"}]}, {"molecule": "HNP-3: human neutrophil protein 3, a prototypical mammalian defensin", "values": [{"measurement": "protein kinase C activity", "setting": "[6]", "value": "inhibited"}]}]}
